Assays:
Assay type in all cases: cell-based, Staphylococcus aureus
S. aureus ATCC 25923 [1] = test: Minimum Inhibitory Concentration (MIC), CLSI M07-A9 modified for 96 well plates, planktonic bacteria; conditions: overnight incubation
Method: (§1) Antibacterial and antibiofilm assay were performed on human pathogens and industrial microorganisms associated with contamination: Staphylococcus aureus (ATCC 25923 and ATCC 12600), S. epidermidis (ATCC 12228 and ATCC 14990), Pseudomonas aeruginosa (ATCC 27853), E. coli (ATCC 25922), C. albicans ATCC 18804), oral flora bacteria Streptococcus mutans (ATCC 25175) and S. gordonii (ATCC 33399), and/or marine biofilm former Cobetia marina (ATCC 25374).
(§2) Antibacterial assays were performed on planktonic bacteria to determine the Minimum Inhibitory Concentrations (MICs) and Minimum Bactericidal Concentrations (MBCs) for the compounds. MICs are defined as the lowest concentration of an antimicrobial that will inhibit the visible growth of a microorganism after overnight incubation. The MICs were determined using the standard CLSI Method M07-A9 for Dilution Antimicrobial Susceptibility Tests for Bacteria That Grow Aerobically modified for 96 well plates. MBCs are the lowest concentration of antimicrobial that kill the organism. MBCs were determined using the standard CLSI Method M26-A for Determining Bactericidal Activity of Antimicrobial Agents modified for 96 well plates.
(§3) A selection of the compounds were used in the above assays against S. aureus (ATCC 25923).

S. aureus ATCC 25923 [2] = test: Minimum Biofilm Eradicating Concentration (MBEC) assay, ASTM E2799-12; conditions: biofilm eradication
Method: Antibacterial and antibiofilm assay were performed on human pathogens and industrial microorganisms associated with contamination: Staphylococcus aureus (ATCC 25923 and ATCC 12600), S. epidermidis (ATCC 12228 and ATCC 14990), Pseudomonas aeruginosa (ATCC 27853), E. coli (ATCC 25922), C. albicans ATCC 18804), oral flora bacteria Streptococcus mutans (ATCC 25175) and S. gordonii (ATCC 33399), and/or marine biofilm former Cobetia marina (ATCC 25374). The MBIC assay is defined as the lowest concentration of the compound that will inhibit the biofilm. The ASTM […]-12 Standard Test Method for Testing Pseudomonas Biofilm using the Minimum Biofilm Eradicating Concentration (MBEC) assay was used to determine biofilm removal. The MBEC assay is defined as the lowest concentration of compound that will eradicate the biofilm. The qualitative MBEC is determined using a microplate reader at absorbance 630 nm and the quantitative MBEC is determined using log10 reduction. A selection of the compounds were used in the above assays against S. aureus (ATCC 25923).

S. aureus ATCC 25923 [3] = test: Minimum Biofilm Inhibition Concentration (MBIC), 96-well microplate static biofilm assay
Method: as §1
Antibiofilm assays were performed to determine the prevention and removal of biofilm. The 96-well microplate assay was used to determine the Minimum Biofilm Inhibition Concentration (MBIC) (Merritt, et al. 2005. Growing and analyzing static biofilms. Curr Protoc Microbiol. Chapter 1, Unit 1.)
The MBIC assay is defined as the lowest concentration of the compound that will inhibit the biofilm. The ASTM E2799-12 Standard Test Method for Testing Pseudomonas Biofilm using the Minimum Biofilm Eradicating Concentration (MBEC) assay was used to determine biofilm removal. The MBEC assay is defined as the lowest concentration of compound that will eradicate the biofilm. The qualitative MBEC is determined using a microplate reader at absorbance 630 nm and the quantitative MBEC is determined using log10 reduction.
as §3

S. aureus ATCC 25923 [4] = test: Minimum Bactericidal Concentration (MBC), CLSI M26-A modified for 96 well plates; conditions: planktonic
Method: as §1, §2, §3

CCCCNP(=O)(O)OC(C)=O [X is NH2; A is (CH2)3CH3, acetic (1-butyl phosphoramidic) anhydride]
0.25 % w/v: MIC (S. aureus ATCC 25923 [1]) | MBEC (S. aureus ATCC 25923 [2]) | MBIC (S. aureus ATCC 25923 [3]) | MBC (S. aureus ATCC 25923 [4])

Reference: patent US11457631B2, “Antimicrobial compounds and methods of use” (AEQUOR, INC., priority 2016, dated 2022)
